Source: patent US4874759A, “5-Hydroxyindole-3-carboxylic acid amide compounds, pharmaceutical compositions and use” (Yoshitomi Pharmaceutical Industries, Ltd., priority 1987, dated 1989)

Legend:
[1] = system: left coronary artery; experiment: Action on coronary blood flow (perfused left coronary artery of anesthetized dog); type: in vivo, mongrel adult dog; details: intracoronary, dose increasing coronary blood flow to 50% of the effect of 3 μg Nifedipine
Method: A mongrel adult dog was anesthetized by intravenous administration with sodium pentobarbital at the dose of 30 mg/kg body weight. In accordance with the method by Yago et al [Folia pharmacologica japonica, vol. 57, p. 380 (1961)], the left coronary artery was perfused and the volume of blood flow was measured. The test compounds were administered in the coronary artery at a dosage of 10 to 30 μl. The effects of the test compounds on the coronary blood flow were represented by ED50 (μg) which was determined as the dose required for increasing the coronary blood flow to the level of 50% of the effect which was attained by administering the coronary artery 3 μg of Nifedipine [dimethyl 2,6-dimethyl-4-(2-nitrophenyl)-1,4-dihydropyridine-3,5-dicarboxylate].

[2] = system: right vertebrartery; experiment: Action on vertebrarterial blood flow (perfused right vertebral artery of anesthetized dog); type: in vivo, mongrel adult dog; details: into vertebral artery, maximum increase by 100 μg papaverine hydrochloride = 100%
Method: After mongrel adult dog was anesthetized by intravenous administration of sodium pentobarbital at the dose of 25 mg/kg body weight, the right vertebrartery was perfused and the volume of blood flow was measured. The test compounds were administered in the vertebral artery.
With the maximum increase rate in the blood flow being taken as 100% when 100 μg of papaverine hydrochloride (1-[(3,4-dimethoxyphenyl)methyl]-6,7-dimethoxyisoquinoline hydrochloride) was administered in the vertebral artery, the effects of the test compounds were represented by ED100 (μg) which denotes the dose required for attaining an increased rate of the blood flow of 100%.

[3] = target: T1, 5-lipoxygenase (Cavia porcellus, UniProt A0A286X958); experiment: 5-Lipoxygenase-inhibitory action (5-HETE production from arachidonic acid); type: biochemical; details: 3.4 μM [1-14C] arachidonic acid, 105,000×g supernatant of guinea pig polymorph leukocyte, 30° C., 3 minutes; read-out: 50% inhibitory concentration against the production of 5-HETE
T1 construct: supernatant fraction of intraperitoneal polymorph leukocyte of guinea pigs was prepared; from tissue; host or cells: peritoneal polymorphonuclear leukocytes of male guinea pigs (casein-elicited), 105,000×g supernatant
T1 sequence (A0A286X958 1-674): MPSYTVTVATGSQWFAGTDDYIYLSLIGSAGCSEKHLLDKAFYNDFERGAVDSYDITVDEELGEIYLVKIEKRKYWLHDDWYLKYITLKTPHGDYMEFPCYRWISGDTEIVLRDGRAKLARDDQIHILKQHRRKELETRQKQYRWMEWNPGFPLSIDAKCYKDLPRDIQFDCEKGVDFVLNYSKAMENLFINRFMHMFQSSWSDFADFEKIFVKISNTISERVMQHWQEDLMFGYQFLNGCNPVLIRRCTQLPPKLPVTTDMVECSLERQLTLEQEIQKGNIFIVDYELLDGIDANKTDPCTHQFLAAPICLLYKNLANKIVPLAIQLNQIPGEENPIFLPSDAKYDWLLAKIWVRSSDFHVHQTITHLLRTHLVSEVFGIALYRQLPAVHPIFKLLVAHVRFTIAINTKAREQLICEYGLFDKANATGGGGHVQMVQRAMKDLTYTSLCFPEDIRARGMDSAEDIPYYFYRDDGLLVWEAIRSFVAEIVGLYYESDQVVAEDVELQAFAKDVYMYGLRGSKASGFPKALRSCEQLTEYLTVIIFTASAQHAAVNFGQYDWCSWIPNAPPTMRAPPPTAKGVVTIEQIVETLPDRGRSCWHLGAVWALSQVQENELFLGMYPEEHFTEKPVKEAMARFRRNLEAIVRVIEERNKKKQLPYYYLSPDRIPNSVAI
Method: In accordance with the method of Ochi et al (J. Biol. Chem., vol. 258, pp. 5754-5758 (1983)), the 105,000×g supernatant fraction of intraperitoneal polymorph leukocyte of guinea pigs was prepared, and the capability of producing 5-hydroxyeicosatetraenoic acid (5-HETE) from arachidonic acid was assayed.
Male guinea pigs weighing about 500 g were intraperitoneally administered with 1/10 volume (at the dose of 10 ml/100 g body weight) of a 2% casein solution and operated in the abdomen 16-18 hours after the administration. The intraperitoneal effusion was taken and the insdie of the abdomen was washed with a saline solution containing 10 mM phosphate buffer solution (pH 7.4) twice. The obtained effusion and the washing solution were collected and centrifuged at 150×g for five minutes. A 0.2% saline solution was added to the sediment, followed by hypotonic treatment to subject the mixed erythrocyte to hemolysis. After a 1.6% saline solution was added thereto to make the mixture isotonic, it was centrifuged in the same manner and suspended in 50 mM Hepes buffer solution (pH 8.0). The suspension was treated with supersonic waves (by Branson sonifier, model 185) and centrifuged at 10,000×g for 10 minutes. The supernatant was further centrifuged at 105,000×g for 60 minutes. The supernatant thus obtained was taken as the 5-lipoxygenase fraction which was freezed to -70° C. to be preserved. […]

[4] = Diuretic action (oral administration to rats; urine volume and electrolytes excreted within 6 hours); type: in vivo, Male Wistar strain rats; details: rat, p.o., average value ± average error
Method: Male Wistar strain rats (each weighing 180 to 220 g, six animals per group) were subjected to the experiment after they had been fasted for 18 hours and further deprived of food and water for 3 hours.
After the rats were orally administered with test compounds suspended in a 0.9% saline solution at the dose of 25 ml/kg, each of them was put in a metabolic cage. The urine excreted within 6 hours after the administration was collected, and the urine volume and sodium (Na), potassium (K) and chlorine (Cl) ions were assayed. The urine sodium and potassium ions were measured by the flame spectrophotometry and the chlorine ions were measured by the chloride counter.
The test compounds were the compounds described below in Examples and the following (as applies to the following Pharmacological Experimental Examples), and the compounds numbers respectively correspond to the compound numbers described at the end of the compound names recited in Examples and the following. In the table, each of the numerals represents average value±average error and the mark * designates that the value is statistically significant as compared with the control by P<0.05 and mark ** designates that the value is statistically signficant by P<0.01.

[5] = Acute toxicity (mortality) in mice; type: in vivo, ddY strain mice; details: ddY mice, 300 mg/kg

Compound: CCCCN(CCCC)C(=O)c1c(C)n(CCc2ccccc2)c2cc(C(=O)CC)c(O)c(CN3CCCCC3)c12 [Compound (4), N,N-Dibutyl-5-hydroxy-2-methyl-1-(2-phenylethyl)-4-piperidinomethyl-6-propionylindole-3-carboxamide]
- Coronary vasodilating action, ED50 [1]: 12 µg
- Vertebrarterial vasodilating action, ED100 [2]: 63 µg
- IC50 [3]: 20 µM

Compound: CCCCNC(=O)c1c(C)[nH]c2cc(Br)c(O)c(CN3CCCCC3)c12 [Compound (10), 6-Bromo-N-butyl-5-hydroxy-2-methyl-4-piperidinomethylindole-3-carboxamide]
- Excretion of Electrolyte, Cl ([4]; 10.0 mg/kg): 379 ± 35 μeq/100 g body weight/ 6 hrs.
- Excretion of Electrolyte, K ([4]; 10.0 mg/kg): 73 ± 8 μeq/100 g body weight/ 6 hrs.
- Excretion of Electrolyte, Na ([4]; 10.0 mg/kg): 402 ± 43 μeq/100 g body weight/ 6 hrs.
- Excretion of Electrolyte, Na/K ([4]; 10.0 mg/kg): 5.8 ± 0.7
- Urine Volume ([4]; 10.0 mg/kg): 2.6 ± 0.3 ml/100 g body weight/ 6 hrs.

Compound: CCCCCCn1c(C)c(C(=O)N(CCCC)CCCC)c2c(CN3CCCCC3)c(O)c(C(=O)CC)cc21 [Compound (6), N,N-dibutyl-1-hexyl-5-hydroxy-2-methyl-4-piperidinomethyl-6-propionylindole-3-carboxamide]
- Coronary vasodilating action, ED50 [1]: 10 µg
- Vertebrarterial vasodilating action, ED100 [2]: 48 µg

Compound: CCCCN(CCCC)C(=O)c1c(C)n(-c2ccccc2)c2cc(C(=O)CC)c(O)c(CN3CCCCC3)c12 [Compound (25), N,N-Dibutyl-5-hydroxy-2-methyl-1-phenyl-4-piperidinomethyl-6-propionylindole-3-carboxamide]
- Coronary vasodilating action, ED50 [1]: 22 µg
- Vertebrarterial vasodilating action, ED100 [2]: 76 µg
- IC50 [3]: 19 µM

Compound: Cc1[nH]c2cc(Br)c(O)c(CN3CCCCC3)c2c1C(=O)N1CCOCC1 [Compound (2), 4-(6-Bromo-5-hydroxy-2-methyl-4-piperidinomethyl-1H-indol-3-ylcarbonyl)morpholine]
- Excretion of Electrolyte, Cl ([4]; 3.0 mg/kg): 349 ± 27 μeq/100 g body weight/ 6 hrs.
- Excretion of Electrolyte, K ([4]; 3.0 mg/kg): 95 ± 7 μeq/100 g body weight/ 6 hrs.
- Excretion of Electrolyte, Na ([4]; 3.0 mg/kg): 284 ± 30 μeq/100 g body weight/ 6 hrs.
- Excretion of Electrolyte, Na/K ([4]; 3.0 mg/kg): 3.1 ± 0.3
- Urine Volume ([4]; 3.0 mg/kg): 2.0 ± 0.2 ml/100 g body weight/ 6 hrs.
- Death of mice ([5]; intraperitoneal): none of them was observed to die
- Death of mice ([5]; oral): none of them was observed to die

Compound: CCCCNC(=O)c1c(C)n(CCCC)c2ccc(O)c(CN3CCCCC3)c12 [Compound (8), 1,N-Dibutyl-5-hydroxy-2-methyl-4-piperidinomethylindole-3-carboxamide]
- Coronary vasodilating action, ED50 [1]: 63 µg
- Vertebrarterial vasodilating action, ED100 [2]: 58 µg

Compound: CCCCN(CCCC)C(=O)c1c(C)[nH]c2ccc(O)c(CN3CCCCC3)c12 [Compound (17), N,N-Dibutyl-5-hydroxy-2-methyl-4-piperidinomethylindole-3-carboxamide]
- Excretion of Electrolyte, Cl ([4]; 10.0 mg/kg): 358 ± 25 μeq/100 g body weight/ 6 hrs.
- Excretion of Electrolyte, K ([4]; 10.0 mg/kg): 64 ± 4 μeq/100 g body weight/ 6 hrs.
- Excretion of Electrolyte, Na ([4]; 10.0 mg/kg): 346 ± 28 μeq/100 g body weight/ 6 hrs.
- Excretion of Electrolyte, Na/K ([4]; 10.0 mg/kg): 5.7 ± 0.9
- Urine Volume ([4]; 10.0 mg/kg): 2.4 ± 0.2 ml/100 g body weight/ 6 hrs.
